Results: ChEMBL document CHEMBL4507286 (2021)

Assays:
[1] = target: Serine/threonine-protein kinase Chk2 (Homo sapiens) (UniProt O96017)
[2] = target: 5-hydroxytryptamine receptor 1D (Homo sapiens) (UniProt P28221); conditions: Compound concentration 10.0 uM
[3] = target: Bone morphogenetic protein receptor type-2 (Homo sapiens) (UniProt Q13873)
[4] = target: Serine/threonine-protein kinase MRCK gamma (Homo sapiens) (UniProt Q6DT37)
[5] = target: Beta-3 adrenergic receptor (Homo sapiens) (UniProt P13945); conditions: Compound concentration 10.0 uM
[6] = tested on: Proto-oncogene tyrosine-protein kinase receptor Ret (Homo sapiens), P07949 [M918T]
[7] = target: Vascular endothelial growth factor receptor 1 (Homo sapiens) (UniProt P17948)
[8] = target: RAF proto-oncogene serine/threonine-protein kinase (Homo sapiens) (UniProt P04049)
[9] = target: Platelet-derived growth factor receptor beta (Homo sapiens) (UniProt P09619)
[10] = tested on: Leucine-rich repeat serine/threonine-protein kinase 2 (Homo sapiens), Q5S007 [G2019S]
[11] = target: Serine/threonine-protein kinase 38-like (Homo sapiens) (UniProt Q9Y2H1)
[12] = target: Serine/threonine-protein kinase TAO3 (Homo sapiens) (UniProt Q9H2K8)
[13] = target: Ribosomal protein S6 kinase alpha-5 (Homo sapiens) (UniProt O75582)
[14] = target: Serine/threonine-protein kinase WNK2 (Homo sapiens) (UniProt Q9Y3S1)
[15] = target: Mitogen-activated protein kinase kinase kinase 14 (Homo sapiens) (UniProt Q99558)
[16] = target: Serine/threonine-protein kinase WNK3 (Homo sapiens) (UniProt Q9BYP7)
[17] = target: Bone morphogenetic protein receptor type-1B (Homo sapiens) (UniProt O00238)
[18] = target: Mitogen-activated protein kinase kinase kinase 11 (Homo sapiens) (UniProt Q16584)
[19] = target: Serine/threonine-protein kinase Nek3 (Homo sapiens) (UniProt P51956)
[20] = target: Calcium/calmodulin-dependent protein kinase type IV (Homo sapiens) (UniProt Q16566)
[21] = target: Serine/threonine-protein kinase 17B (Homo sapiens) (UniProt O94768)
[22] = tested on: Tyrosine-protein kinase ABL1 (Homo sapiens), P00519 [Y253F]
[23] = tested on: Tyrosine-protein kinase ABL1 (Homo sapiens), P00519 [Q252H]
[24] = target: Non-receptor tyrosine-protein kinase TNK1 (Homo sapiens) (UniProt Q13470)
[25] = target: Serine/threonine-protein kinase NLK (Homo sapiens) (UniProt Q9UBE8)
[26] = target: MAP kinase-activated protein kinase 5 (Homo sapiens) (UniProt Q8IW41)
[27] = target: Tyrosine-protein kinase JAK1 (Homo sapiens) (UniProt P23458)
[28] = target: Tyrosine-protein kinase ZAP-70 (Homo sapiens) (UniProt P43403)
[29] = target: SRSF protein kinase 2 (Homo sapiens) (UniProt P78362)
[30] = target: Serine/threonine-protein kinase 32B (Homo sapiens) (UniProt Q9NY57)
[31] = target: Ephrin type-A receptor 7 (Homo sapiens) (UniProt Q15375)
[32] = tested on: Receptor-type tyrosine-protein kinase FLT3 (Homo sapiens), P36888 [K663Q]
[33] = target: Dual specificity mitogen-activated protein kinase kinase 6 (Homo sapiens) (UniProt P52564)
[34] = target: Ribosomal protein S6 kinase alpha-1 (Homo sapiens) (UniProt Q15418)
[35] = target: Platelet-derived growth factor receptor alpha (Homo sapiens) (UniProt P16234)
[36] = target: Tyrosine-protein kinase Fes/Fps (Homo sapiens) (UniProt P07332)
[37] = target: Cyclin-dependent kinase 4 (Homo sapiens) (UniProt P11802)
[38] = target: Mitogen-activated protein kinase 4 (Homo sapiens) (UniProt P31152)
[39] = target: Ribosomal protein S6 kinase alpha-2 (Homo sapiens) (UniProt Q15349)
[40] = target: Serine/threonine-protein kinase 3 (Homo sapiens) (UniProt Q13188)
[41] = target: Membrane-associated tyrosine- and threonine-specific cdc2-inhibitory kinase (Homo sapiens) (UniProt Q99640)
[42] = target: cAMP-dependent protein kinase catalytic subunit beta (Homo sapiens) (UniProt P22694)
[43] = target: Tyrosine-protein kinase receptor UFO (Homo sapiens) (UniProt P30530)
[44] = target: Serine/threonine-protein kinase 24 (Homo sapiens) (UniProt Q9Y6E0)
[45] = target: Phosphatidylinositol 4,5-bisphosphate 3-kinase catalytic subunit gamma isoform (Homo sapiens) (UniProt P48736)
[46] = Compound concentration 1000.0 nM
[47] = Compound concentration 100.0 nM

Sequence of Serine/threonine-protein kinase NLK (Homo sapiens) (Q9UBE8 whole entry): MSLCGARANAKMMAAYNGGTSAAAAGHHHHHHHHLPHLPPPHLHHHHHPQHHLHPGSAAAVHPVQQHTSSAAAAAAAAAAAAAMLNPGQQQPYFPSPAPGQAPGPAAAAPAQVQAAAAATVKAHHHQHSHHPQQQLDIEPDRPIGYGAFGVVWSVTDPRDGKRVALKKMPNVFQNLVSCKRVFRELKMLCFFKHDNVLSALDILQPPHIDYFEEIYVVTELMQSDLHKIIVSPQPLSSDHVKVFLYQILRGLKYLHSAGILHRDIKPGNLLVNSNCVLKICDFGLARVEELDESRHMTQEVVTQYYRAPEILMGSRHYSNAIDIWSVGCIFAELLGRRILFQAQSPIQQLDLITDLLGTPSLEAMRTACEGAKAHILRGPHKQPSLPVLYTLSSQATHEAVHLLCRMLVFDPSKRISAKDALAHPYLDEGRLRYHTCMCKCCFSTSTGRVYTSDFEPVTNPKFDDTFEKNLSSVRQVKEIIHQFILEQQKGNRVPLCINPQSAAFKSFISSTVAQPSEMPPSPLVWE
Sequence of Tyrosine-protein kinase Fes/Fps (Homo sapiens) (P07332 whole entry): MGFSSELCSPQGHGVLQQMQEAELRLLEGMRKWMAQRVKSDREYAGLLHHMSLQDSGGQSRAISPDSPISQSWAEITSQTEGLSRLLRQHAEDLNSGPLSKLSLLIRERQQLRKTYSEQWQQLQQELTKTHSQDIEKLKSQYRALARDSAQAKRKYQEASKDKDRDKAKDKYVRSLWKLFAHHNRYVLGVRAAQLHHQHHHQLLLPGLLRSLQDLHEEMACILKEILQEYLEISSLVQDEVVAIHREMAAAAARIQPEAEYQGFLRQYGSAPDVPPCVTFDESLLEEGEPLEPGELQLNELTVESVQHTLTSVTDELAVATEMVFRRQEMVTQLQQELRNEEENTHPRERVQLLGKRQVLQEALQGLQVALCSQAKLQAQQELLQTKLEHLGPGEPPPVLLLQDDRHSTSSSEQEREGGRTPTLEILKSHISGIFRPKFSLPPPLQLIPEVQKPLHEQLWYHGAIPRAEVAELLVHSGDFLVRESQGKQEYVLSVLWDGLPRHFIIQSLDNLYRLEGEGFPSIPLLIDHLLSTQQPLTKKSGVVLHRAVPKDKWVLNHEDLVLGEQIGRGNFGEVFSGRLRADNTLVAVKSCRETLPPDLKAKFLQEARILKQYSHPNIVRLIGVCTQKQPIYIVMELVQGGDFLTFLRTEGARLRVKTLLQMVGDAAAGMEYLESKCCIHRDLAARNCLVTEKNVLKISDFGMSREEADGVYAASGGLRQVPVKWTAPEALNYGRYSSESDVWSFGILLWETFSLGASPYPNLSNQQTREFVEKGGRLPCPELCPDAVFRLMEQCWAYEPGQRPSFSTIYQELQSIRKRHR
Sequence of Ephrin type-A receptor 7 (Homo sapiens) (Q15375 28-998 limits assumed): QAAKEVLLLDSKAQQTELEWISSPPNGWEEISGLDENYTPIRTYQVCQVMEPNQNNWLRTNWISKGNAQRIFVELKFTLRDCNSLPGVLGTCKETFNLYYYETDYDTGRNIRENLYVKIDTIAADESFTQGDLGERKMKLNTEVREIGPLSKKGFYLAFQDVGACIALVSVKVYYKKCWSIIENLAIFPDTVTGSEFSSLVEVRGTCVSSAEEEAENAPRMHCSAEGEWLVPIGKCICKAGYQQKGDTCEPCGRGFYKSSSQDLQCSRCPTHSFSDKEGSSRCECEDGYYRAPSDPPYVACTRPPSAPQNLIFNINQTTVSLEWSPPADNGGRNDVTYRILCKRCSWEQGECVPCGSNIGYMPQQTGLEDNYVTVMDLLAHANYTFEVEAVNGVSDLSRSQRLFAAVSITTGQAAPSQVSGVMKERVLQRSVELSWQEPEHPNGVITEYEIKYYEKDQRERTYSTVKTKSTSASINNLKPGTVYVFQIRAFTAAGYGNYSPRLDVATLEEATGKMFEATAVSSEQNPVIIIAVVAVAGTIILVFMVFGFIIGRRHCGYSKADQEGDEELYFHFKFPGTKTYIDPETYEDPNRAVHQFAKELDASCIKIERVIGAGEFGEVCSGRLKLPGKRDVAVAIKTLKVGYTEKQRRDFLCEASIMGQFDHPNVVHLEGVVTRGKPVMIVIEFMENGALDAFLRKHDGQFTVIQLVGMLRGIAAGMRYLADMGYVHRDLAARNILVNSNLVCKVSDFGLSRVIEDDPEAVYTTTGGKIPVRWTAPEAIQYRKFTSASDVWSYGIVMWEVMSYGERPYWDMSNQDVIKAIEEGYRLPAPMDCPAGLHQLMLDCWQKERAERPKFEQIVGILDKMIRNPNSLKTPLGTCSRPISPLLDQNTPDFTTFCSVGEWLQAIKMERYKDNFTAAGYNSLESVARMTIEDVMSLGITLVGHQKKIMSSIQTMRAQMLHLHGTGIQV
Sequence of Serine/threonine-protein kinase MRCK gamma (Homo sapiens) (Q6DT37 whole entry): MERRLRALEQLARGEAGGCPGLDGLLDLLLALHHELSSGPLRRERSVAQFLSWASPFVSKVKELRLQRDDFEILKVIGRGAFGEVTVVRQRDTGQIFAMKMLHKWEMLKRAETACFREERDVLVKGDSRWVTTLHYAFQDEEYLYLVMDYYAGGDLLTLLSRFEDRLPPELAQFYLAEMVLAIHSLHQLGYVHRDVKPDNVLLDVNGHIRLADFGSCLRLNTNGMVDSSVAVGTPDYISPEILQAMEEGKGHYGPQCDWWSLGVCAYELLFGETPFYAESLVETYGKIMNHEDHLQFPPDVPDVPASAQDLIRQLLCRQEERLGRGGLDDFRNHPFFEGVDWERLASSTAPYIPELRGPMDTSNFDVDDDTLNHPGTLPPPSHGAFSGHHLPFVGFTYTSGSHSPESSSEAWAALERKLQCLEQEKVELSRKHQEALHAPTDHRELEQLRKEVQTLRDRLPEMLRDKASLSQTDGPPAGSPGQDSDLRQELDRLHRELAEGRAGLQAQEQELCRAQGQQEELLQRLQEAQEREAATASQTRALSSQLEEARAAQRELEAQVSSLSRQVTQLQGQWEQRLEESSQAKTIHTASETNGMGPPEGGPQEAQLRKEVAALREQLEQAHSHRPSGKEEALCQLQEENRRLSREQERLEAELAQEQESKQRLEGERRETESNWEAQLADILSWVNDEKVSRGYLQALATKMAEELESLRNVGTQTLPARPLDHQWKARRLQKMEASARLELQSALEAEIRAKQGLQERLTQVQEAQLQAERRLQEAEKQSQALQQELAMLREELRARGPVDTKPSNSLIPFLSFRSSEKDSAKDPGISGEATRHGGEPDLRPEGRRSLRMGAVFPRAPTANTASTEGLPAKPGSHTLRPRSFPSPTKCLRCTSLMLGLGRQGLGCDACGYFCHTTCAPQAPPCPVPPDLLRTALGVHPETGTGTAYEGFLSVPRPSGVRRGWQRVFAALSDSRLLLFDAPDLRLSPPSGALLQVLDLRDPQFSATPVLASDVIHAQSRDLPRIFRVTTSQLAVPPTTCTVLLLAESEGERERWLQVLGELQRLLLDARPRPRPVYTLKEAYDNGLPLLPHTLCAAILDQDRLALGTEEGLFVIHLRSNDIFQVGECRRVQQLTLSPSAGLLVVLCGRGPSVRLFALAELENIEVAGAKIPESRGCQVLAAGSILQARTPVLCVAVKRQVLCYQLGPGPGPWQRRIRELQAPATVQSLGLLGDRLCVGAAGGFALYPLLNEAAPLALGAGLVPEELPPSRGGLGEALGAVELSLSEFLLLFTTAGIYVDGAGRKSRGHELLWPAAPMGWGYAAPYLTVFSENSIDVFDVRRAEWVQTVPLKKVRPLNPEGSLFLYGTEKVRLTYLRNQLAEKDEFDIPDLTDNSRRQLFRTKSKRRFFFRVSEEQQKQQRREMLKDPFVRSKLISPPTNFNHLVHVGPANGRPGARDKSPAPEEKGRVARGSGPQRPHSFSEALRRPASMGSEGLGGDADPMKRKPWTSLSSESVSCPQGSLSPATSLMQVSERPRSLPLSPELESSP
Sequence of Platelet-derived growth factor receptor beta (Homo sapiens) (P09619 whole entry): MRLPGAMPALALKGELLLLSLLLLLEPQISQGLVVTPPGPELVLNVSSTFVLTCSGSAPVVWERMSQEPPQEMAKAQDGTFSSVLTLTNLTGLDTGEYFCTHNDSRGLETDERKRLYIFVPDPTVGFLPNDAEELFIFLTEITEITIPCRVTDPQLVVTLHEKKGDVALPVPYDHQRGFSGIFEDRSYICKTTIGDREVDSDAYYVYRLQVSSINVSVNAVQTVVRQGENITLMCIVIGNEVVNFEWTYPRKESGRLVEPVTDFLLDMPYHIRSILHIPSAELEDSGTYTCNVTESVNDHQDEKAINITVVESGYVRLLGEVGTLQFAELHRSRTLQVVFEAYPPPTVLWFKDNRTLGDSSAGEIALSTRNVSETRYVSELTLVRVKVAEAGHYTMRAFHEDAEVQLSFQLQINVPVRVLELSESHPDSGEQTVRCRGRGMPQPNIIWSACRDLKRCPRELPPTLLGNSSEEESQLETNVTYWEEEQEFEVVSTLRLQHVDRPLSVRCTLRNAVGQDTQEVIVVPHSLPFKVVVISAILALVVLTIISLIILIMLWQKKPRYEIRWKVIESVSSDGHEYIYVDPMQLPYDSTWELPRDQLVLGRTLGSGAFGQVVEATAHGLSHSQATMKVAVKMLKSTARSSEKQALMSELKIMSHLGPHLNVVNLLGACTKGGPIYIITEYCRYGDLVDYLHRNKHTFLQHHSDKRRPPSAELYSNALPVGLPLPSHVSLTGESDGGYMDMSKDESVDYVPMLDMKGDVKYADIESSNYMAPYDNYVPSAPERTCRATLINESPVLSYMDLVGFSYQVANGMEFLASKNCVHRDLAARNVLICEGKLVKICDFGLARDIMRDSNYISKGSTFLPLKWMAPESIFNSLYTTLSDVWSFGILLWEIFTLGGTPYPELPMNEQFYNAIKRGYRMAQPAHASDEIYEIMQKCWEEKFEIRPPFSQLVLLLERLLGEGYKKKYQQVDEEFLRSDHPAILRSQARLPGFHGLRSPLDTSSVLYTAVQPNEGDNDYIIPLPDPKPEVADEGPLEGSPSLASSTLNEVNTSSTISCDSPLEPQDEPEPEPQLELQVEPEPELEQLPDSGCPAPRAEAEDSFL

C[C@H](NC(=O)Nc1cc2[nH]ncc2c(CO)n1)c1ccccn1 [ERKi-NC]
residual activity [1, 46]: 95.9% | inhibition [2]: 39.9% | residual activity [3, 46]: 100% | residual activity [4, 46]: 100% | inhibition [5]: 13.6% | residual activity [6, 46]: 100% | residual activity [7, 46]: 100% | residual activity [8, 46]: 90.2% | residual activity [9, 46]: 100% | residual activity [10, 46]: 88.8% | residual activity [11, 46]: 100% | residual activity [12, 46]: 100% | residual activity [13, 46]: 100% | residual activity [14, 46]: 90.7% | residual activity [15, 46]: 85% | residual activity [16, 46]: 100% | residual activity [17, 46]: 100% | residual activity [18, 46]: 87.7% | residual activity [19, 46]: 46.8% | residual activity [20, 46]: 96.4% | residual activity [21, 46]: 100% | residual activity [22, 46]: 100% | residual activity [23, 46]: 42.7% | residual activity [24, 46]: 87.8% | residual activity [25, 46]: 66.3% | residual activity [26, 46]: 100% | residual activity [27, 46]: 100% | residual activity [28, 46]: 77.9% | residual activity [29, 46]: 100% | residual activity [30, 46]: 100% | residual activity [31, 46]: 97.3% | residual activity [32, 46]: 93.5% | residual activity [33, 46]: 100% | residual activity [34, 46]: 90.3% | residual activity [35, 46]: 100% | residual activity [36, 46]: 100% | residual activity [37, 46]: 89.8% | residual activity [38, 46]: 84.7% | residual activity [39, 46]: 100% | residual activity [40, 46]: 82.2% | residual activity [41, 46]: 100% | residual activity [42, 46]: 91.5% | residual activity [43, 46]: 100% | residual activity [44, 46]: 98% | residual activity [45, 46]: 100%

C[C@@H](NC(=O)Nc1cc2[nH]ncc2c(CO)n1)c1ccccc1 [ERKi]
residual activity [1, 47]: 100% | inhibition [2]: 1.59% | residual activity [3, 47]: 70.3% | residual activity [4, 47]: 98.2% | inhibition [5]: 24.1% | residual activity [6, 47]: 100% | residual activity [7, 47]: 100% | residual activity [8, 47]: 100% | residual activity [9, 47]: 95.8% | residual activity [10, 47]: 82.7% | residual activity [11, 47]: 72.7% | residual activity [12, 47]: 73% | residual activity [13, 47]: 82.7% | residual activity [14, 47]: 100% | residual activity [15, 47]: 100% | residual activity [16, 47]: 47.3% | residual activity [17, 47]: 69.4% | residual activity [18, 47]: 100% | residual activity [19, 47]: 79.6% | residual activity [20, 47]: 100% | residual activity [21, 47]: 95.8% | residual activity [22, 47]: 76.2% | residual activity [23, 47]: 88.4% | residual activity [24, 47]: 98.1% | residual activity [25, 47]: 100% | residual activity [26, 47]: 80% | residual activity [27, 47]: 91.2% | residual activity [28, 47]: 95.8% | residual activity [29, 47]: 61.2% | residual activity [30, 47]: 96.6% | residual activity [31, 47]: 91.1% | residual activity [32, 47]: 96.5% | residual activity [33, 47]: 81.4% | residual activity [34, 47]: 89.9% | residual activity [35, 47]: 87.3% | residual activity [36, 47]: 100% | residual activity [37, 47]: 100% | residual activity [38, 47]: 98.3% | residual activity [39, 47]: 90.7% | residual activity [40, 47]: 90.2% | residual activity [41, 47]: 99.6% | residual activity [42, 47]: 77% | residual activity [43, 47]: 77.9% | residual activity [44, 47]: 100% | residual activity [45, 47]: 96.4%
